Laboratory results as given in the NIST ThermoML archive (doi:10.1016/j.jct.2010.08.019).
Where “and” joins values, the source holds several entries; their conditions need not be identical. Identical values can stand only once. Numbers after ± are expanded uncertainties.

Experiments:
[1] = refractive index (Na D-line) (dimensionless); details: Liquid, Standard Abbe refractometry
[2] = for surface tension liquid-gas: Wilhelmy-plate method; for viscosity / mass density: Liquid; for viscosity: Falling or rolling sphere viscometry; for mass density: Vibrating tube method
[3] = refractive index (Na D-line) (dimensionless); xn = mol fraction of the nth substance listed; details: 101 kPa, Liquid, Standard Abbe refractometry
[4] = xn = mol fraction of the nth substance listed; details: for surface tension liquid-gas: Wilhelmy-plate method; for viscosity / mass density: 101 kPa, Liquid; for viscosity: Falling or rolling sphere viscometry; for mass density: Vibrating tube method

| Compound | refractive index ([1]; 293.15 K, 101 kPa) | refractive index ([1]; 298.15 K, 101.33 kPa) | refractive index ([1]; 303.15 K, 101 kPa) | refractive index ([1]; 313.15 K, 101 kPa) | refractive index ([1]; 323.15 K, 101 kPa) | surface tension liquid-gas ([2]; 293.15 K) [mN/m] | viscosity ([2]; 293.15 K, 101 kPa) [mPa·s] | mass density ([2]; 293.15 K, 101 kPa) [kg/m3] | surface tension liquid-gas ([2]; 298.15 K) [mN/m] | viscosity ([2]; 298.15 K, 101.33 kPa) [mPa·s] | mass density ([2]; 298.15 K, 101.33 kPa) [kg/m3] | surface tension liquid-gas ([2]; 303.15 K) [mN/m] | viscosity ([2]; 303.15 K, 101 kPa) [mPa·s] | mass density ([2]; 303.15 K, 101 kPa) [kg/m3] | surface tension liquid-gas ([2]; 313.15 K) [mN/m] | viscosity ([2]; 313.15 K, 101 kPa) [mPa·s] | mass density ([2]; 313.15 K, 101 kPa) [kg/m3] | surface tension liquid-gas ([2]; 323.15 K) [mN/m] | viscosity ([2]; 323.15 K, 101 kPa) [mPa·s] | mass density ([2]; 323.15 K, 101 kPa) | other results |
| --- | --- | --- | --- | --- | --- | --- | --- | --- | --- | --- | --- | --- | --- | --- | --- | --- | --- | --- | --- | --- | --- |
| CC(C)CC(C)(C)C [2,2,4-trimethylpentane] | 1.39161 ± 0.00033 | 1.38906 ± 0.00033 | 1.3866 ± 0.00033 | 1.38143 ± 0.00033 | 1.37627 ± 0.00033 | 18.8 ± 0.4 | 0.503 ± 0.009 | 691.98 ± 0.18 | 18.3 ± 0.4 | 0.475 ± 0.009 | 687.7 ± 0.2 | 17.9 ± 0.4 | 0.447 ± 0.009 | 683.61 ± 0.18 | 16.9 ± 0.4 | 0.404 ± 0.009 | 675.23 ± 0.18 | 16.2 ± 0.4 | 0.365 ± 0.009 | 666.8 ± 0.19 kg/m3 | – |
| CC(C)CC(C)(C)C [2,2,4-trimethylpentane] + C1CCOCC1 | – | – | – | – | – | – | – | – | – | – | – | – | – | – | – | – | – | – | – | – | refractive index ([3]; 293.15 K, x2 = 0): 1.39161 ± 0.00033; refractive index ([3]; 303.15 K, x2 = 0): 1.3866 ± 0.00033; refractive index ([3]; 313.15 K, x2 = 0): 1.38143 ± 0.00033; refractive index ([3]; 323.15 K, x2 = 0): 1.37627 ± 0.00033; surface tension liquid-gas ([4]; 293.15 K, x2 = 0): 18.8 ± 0.4 mN/m; viscosity ([4]; 293.15 K, x2 = 0): 0.503 ± 0.009 mPa·s; mass density ([4]; 293.15 K, x2 = 0): 691.98 ± 0.18 kg/m3; surface tension liquid-gas ([4]; 303.15 K, x2 = 0): 17.9 ± 0.4 mN/m; viscosity ([4]; 303.15 K, x2 = 0): 0.447 ± 0.009 mPa·s; mass density ([4]; 303.15 K, x2 = 0): 683.61 ± 0.18 kg/m3; surface tension liquid-gas ([4]; 313.15 K, x2 = 0): 16.9 ± 0.4 mN/m; viscosity ([4]; 313.15 K, x2 = 0): 0.404 ± 0.009 mPa·s; mass density ([4]; 313.15 K, x2 = 0): 675.23 ± 0.18 kg/m3; surface tension liquid-gas ([4]; 323.15 K, x2 = 0): 16.2 ± 0.4 mN/m; viscosity ([4]; 323.15 K, x2 = 0): 0.365 ± 0.009 mPa·s; mass density ([4]; 323.15 K, x2 = 0): 666.8 ± 0.19 kg/m3 |
| CC(C)O [propan-2-ol] | 1.37724 ± 0.00033 | 1.3752 ± 0.00033 | 1.37286 ± 0.00033 | 1.36852 ± 0.00033 | 1.36363 ± 0.00033 | 21.3 ± 0.4 | 2.362 ± 0.02 | 785.44 ± 0.15 | 20.9 ± 0.4 | 2.04 ± 0.02 | 781.05 ± 0.15 | 20.4 ± 0.4 | 1.769 ± 0.016 | 776.75 ± 0.15 | 19.6 ± 0.4 | 1.331 ± 0.013 | 767.93 ± 0.15 | 18.8 ± 0.4 | 1.019 ± 0.012 | 758.9 ± 0.16 kg/m3 | – |
| CC(C)O [propan-2-ol] + C1CCOCC1 | – | – | – | – | – | – | – | – | – | – | – | – | – | – | – | – | – | – | – | – | refractive index ([3]; 293.15 K, x1 = 1): 1.37724 ± 0.00033; refractive index ([3]; 303.15 K, x1 = 1): 1.37286 ± 0.00033; refractive index ([3]; 313.15 K, x1 = 1): 1.36852 ± 0.00033; refractive index ([3]; 323.15 K, x1 = 1): 1.36363 ± 0.00033; surface tension liquid-gas ([4]; 293.15 K, x1 = 1): 21.3 ± 0.4 mN/m; viscosity ([4]; 293.15 K, x1 = 1): 2.362 ± 0.02 mPa·s; mass density ([4]; 293.15 K, x1 = 1): 785.44 ± 0.15 kg/m3; surface tension liquid-gas ([4]; 303.15 K, x1 = 1): 20.4 ± 0.4 mN/m; viscosity ([4]; 303.15 K, x1 = 1): 1.769 ± 0.016 mPa·s; mass density ([4]; 303.15 K, x1 = 1): 776.75 ± 0.15 kg/m3; surface tension liquid-gas ([4]; 313.15 K, x1 = 1): 19.6 ± 0.4 mN/m; viscosity ([4]; 313.15 K, x1 = 1): 1.331 ± 0.013 mPa·s; mass density ([4]; 313.15 K, x1 = 1): 767.93 ± 0.15 kg/m3; surface tension liquid-gas ([4]; 323.15 K, x1 = 1): 18.8 ± 0.4 mN/m; viscosity ([4]; 323.15 K, x1 = 1): 1.019 ± 0.012 mPa·s; mass density ([4]; 323.15 K, x1 = 1): 758.9 ± 0.16 kg/m3 |
| CC(C)O [propan-2-ol] + CC(C)CC(C)(C)C | – | – | – | – | – | – | – | – | – | – | – | – | – | – | – | – | – | – | – | – | refractive index ([3]; 293.15 K, x1 = 1): 1.37724 ± 0.00033; refractive index ([3]; 303.15 K, x1 = 1): 1.37286 ± 0.00033; refractive index ([3]; 313.15 K, x1 = 1): 1.36852 ± 0.00033; refractive index ([3]; 323.15 K, x1 = 1): 1.36363 ± 0.00033; surface tension liquid-gas ([4]; 293.15 K, x1 = 1): 21.3 ± 0.4 mN/m; viscosity ([4]; 293.15 K, x1 = 1): 2.362 ± 0.02 mPa·s; mass density ([4]; 293.15 K, x1 = 1): 785.44 ± 0.15 kg/m3; surface tension liquid-gas ([4]; 303.15 K, x1 = 1): 20.4 ± 0.4 mN/m; viscosity ([4]; 303.15 K, x1 = 1): 1.769 ± 0.016 mPa·s; mass density ([4]; 303.15 K, x1 = 1): 776.75 ± 0.15 kg/m3; surface tension liquid-gas ([4]; 313.15 K, x1 = 1): 19.6 ± 0.4 mN/m; viscosity ([4]; 313.15 K, x1 = 1): 1.331 ± 0.013 mPa·s; mass density ([4]; 313.15 K, x1 = 1): 767.93 ± 0.15 kg/m3; surface tension liquid-gas ([4]; 323.15 K, x1 = 1): 18.8 ± 0.4 mN/m; viscosity ([4]; 323.15 K, x1 = 1): 1.019 ± 0.012 mPa·s; mass density ([4]; 323.15 K, x1 = 1): 758.9 ± 0.16 kg/m3 |
| C1CCOCC1 [tetrahydropyran] | 1.39161 ± 0.00037 and 1.42109 ± 0.00037 | 1.4186 ± 0.0004 | 1.3866 ± 0.00037 and 1.41599 ± 0.00037 | 1.38143 ± 0.00037 and 1.41092 ± 0.00037 | 1.37627 ± 0.00037 and 1.40554 ± 0.00037 | 27.5 ± 0.4 | 0.86 ± 0.011 | 884.27 ± 0.23 | 27.2 ± 0.4 | 0.8 ± 0.01 | 878.8 ± 0.2 | 26.2 ± 0.4 | 0.749 ± 0.01 | 874.07 ± 0.23 | 25.1 ± 0.4 | 0.658 ± 0.01 | 863.76 ± 0.47 | 23.8 ± 0.4 | 0.565 ± 0.009 | 666.8 ± 0.83 kg/m3 and 853.46 ± 0.24 kg/m3 | – |
